Test [1] concerns Gram-positive and Gram-negative bacterial strains, drug sensitive and drug resistant. The test is described as follows: In vitro antibacterial activity evaluation, whole strain panel.
For test [2], the target named is T1, DNA gyrase from E. coli (Escherichia coli, UniProt P0AES4+P0AES6).
T1 construct: purchased Inspiralis
Kind of test: Inspiralis E. coli DNA gyrase inhibition assay. Type of test: biochemical.
Procedure: Inhibitory potencies were investigated utilizing the Inspiralis assay on streptavidin-coated 96-well microtiter plates. First, the plates were rehydrated with buffer (20 mM Tris-HCl with pH 7.6, 0.01% w/v BSA, 0.05% v/v Tween 20, 137 mM NaCl) and the biotinylated oligonucleotide was then immobilized. After washing off the unbound oligonucleotide, the enzyme test was performed. […] Reaction solutions were incubated at 37° C. for 30 min. After that, the TF buffer (50 mM NaOAc with pH 5.0, 50 mM NaCl and 50 mM MgCl2) was added to terminate the enzymatic reaction. After additional incubation for 30 min at rt, during which biotinoligonucleotide-plasmid triplex was formed, the unbound plasmid was washed off using TF buffer and SybrGOLD in T10 buffer (10 mM Tris HCl with pH 8.0 and 1 mM EDTA) was added. The fluorescence was measured with a microplate reader (BioTek Synergy H4, excitation: 485 nm, emission: 535 nm). Initial screening was done at 100 or 10 μM concentration of inhibitors. […] GraphPad Prism software was used to calculate the IC50 values. The result is given as the average value of three independent measurements.

Test [3] deals with Mycobacterium tuberculosis H37Rv strain. Kind of test: Anti-tubercular alamar blue microplate MIC assay. The format is cell-based. The note with it: 168 h, M. tuberculosis H37Rv, 7 days at 37° C., read-out: anti-mycobacterial activity (MIC).
Test [4] relates to Bacillus subtilis MTCC 441. The test is described as follows: Antibacterial MIC, CLSI M07-A10 dilution susceptibility test. Type of test: cell-based. The note with it: MTCC441.
In test [5] the test system is Staphylococcus aureus ATCC 29213. The description is as above. Type of test: cell-based. The note with it: ATCC29213.
Test [6] has as its system Staphylococcus epidermidis. The test is described as above. The format is cell-based.
Test [7] deals with Staphylococcus aureus ATCC BAA-1556 (MERSA resistant). Described as above. The format is cell-based. To be noted: ATCCBAA1556.
The subject of test [8] is Escherichia coli MTCC 443. The test is described as above. The format is cell-based. To be noted: MTCC443.
Test [9] deals with Pseudomonas aeruginosa MTCC 741. The description is as above. The note with it: MTCC741. The format is cell-based.
In test [10] the test system is Klebsiella pneumonia MTCC 618. The test is described as above. Type of test: cell-based. The note with it: Klebsiella pneumoniae, MTCC618.
For test [11], the system named is Enterococcus faecium ATCC 51559 (VRE resistant). The description is as above. Type of test: cell-based.
In test [12] the test system is Enterococcus faecium ATCC 35667. The description is as above. Type of test: cell-based. The note with it: ATCC35667.

Converted amounts (≈) assume the structure as drawn. Where two headings read alike, the source gives them in different places.

T1 sequence (P0AES4 whole entry, one chain of several): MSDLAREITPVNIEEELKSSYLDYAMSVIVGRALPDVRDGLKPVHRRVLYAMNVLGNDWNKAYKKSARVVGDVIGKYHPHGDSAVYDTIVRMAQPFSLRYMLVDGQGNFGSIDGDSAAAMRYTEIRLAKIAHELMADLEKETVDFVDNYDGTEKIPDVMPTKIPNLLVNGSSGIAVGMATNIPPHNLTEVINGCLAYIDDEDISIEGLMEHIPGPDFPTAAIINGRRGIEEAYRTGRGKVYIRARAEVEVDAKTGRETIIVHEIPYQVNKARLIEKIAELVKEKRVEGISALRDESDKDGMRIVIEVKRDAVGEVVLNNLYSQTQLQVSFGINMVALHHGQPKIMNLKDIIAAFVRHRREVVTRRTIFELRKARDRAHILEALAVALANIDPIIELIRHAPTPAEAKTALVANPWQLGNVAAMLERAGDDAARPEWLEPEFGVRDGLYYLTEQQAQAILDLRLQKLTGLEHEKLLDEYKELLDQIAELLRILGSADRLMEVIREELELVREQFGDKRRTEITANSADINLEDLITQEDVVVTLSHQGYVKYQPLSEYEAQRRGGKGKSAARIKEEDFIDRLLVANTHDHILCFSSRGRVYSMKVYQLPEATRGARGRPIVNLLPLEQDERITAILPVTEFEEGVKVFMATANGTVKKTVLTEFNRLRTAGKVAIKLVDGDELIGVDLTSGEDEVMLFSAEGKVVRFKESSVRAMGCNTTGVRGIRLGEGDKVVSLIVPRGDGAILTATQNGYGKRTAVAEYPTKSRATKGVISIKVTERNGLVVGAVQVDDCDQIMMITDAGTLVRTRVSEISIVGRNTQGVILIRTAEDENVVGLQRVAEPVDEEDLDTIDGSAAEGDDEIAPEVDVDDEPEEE

For `CNc1cc(F)cc2c1[nH]c1ccc(-c3cccc(CC(=O)O)c3)cc12` [Compound 1, 2-(3-(6-fluoro-8-(methylamino)-9H-carbazol-3-yl)phenyl)acetic acid], the “antibacterial activity (in words)” value in test [1] is listed as “promising antibacterial activity”. Besides, the IC50 in [2] came out at 80 nM. In addition, the MIC in [3] was 2 µg/mL (≈ 5.74 µM).

For the molecule `CNc1cc(F)cc2c1[nH]c1ccc(Nc3cccc(C(=O)O)c3)cc12` [Compound 6, 3-((6-fluoro-8-(methylamino)-9H-carbazol-3-yl)amino)benzoic acid], the MIC in [4] (Bacillus subtilis MTCC 441, read-out: MIC) came out at 0.75 µg/mL (≈ 2.15 µM); in test [5], 0.75 µg/mL (≈ 2.15 µM); in test [6] (read-out: MIC), 0.5 µg/mL (≈ 1.43 µM); in [7], 1 µg/mL (≈ 2.86 µM); in test [8] (Escherichia coli MTCC 443, read-out: MIC), 32 µg/mL (≈ 91.6 µM); in test [9] (Pseudomonas aeruginosa MTCC 741, read-out: MIC) it was 16 µg/mL (≈ 45.8 µM). Also, the MIC in [10] (Klebsiella pneumonia MTCC 618, read-out: MIC) turned out to be 1 µg/mL (≈ 2.86 µM); in test [11] (Enterococcus faecium ATCC 51559 (VRE resistant), read-out: MIC) it was 2 µg/mL (≈ 5.72 µM); in [12] (Enterococcus faecium ATCC 35667, read-out: MIC), 1 µg/mL (≈ 2.86 µM).

Regarding `CN[C@H](CC(C)C)C(=O)N[C@H]1C(=O)N[C@@H](CC(N)=O)C(=O)N[C@H]2C(=O)N[C@H]3C(=O)N[C@H](C(=O)N[C@H](C(=O)O)c4cc(O)cc(O)c4-c4cc3ccc4O)[C@H](O)c3ccc(c(Cl)c3)Oc3cc2cc(c3O[C@@H]2O[C@H](CO)[C@@H](O)[C@H](O)[C@H]2O[C@H]2C[C@](C)(N)[C@H](O)[C@H](C)O2)Oc2ccc(cc2Cl)[C@H]1O` [Vancomycin, reference compound], the minimum inhibitory concentration (MIC) in [4] (Bacillus subtilis) is 0.5 µg/mL (≈ 0.345 µM); in test [6], 1 µg/mL (≈ 0.69 µM); in test [8] (Escherichia coli), greater than 128 µg/mL; in [9] (Pseudomonas aeruginosa) it was greater than 128 µg/mL; in [10], greater than 128 µg/mL; in [11] (Enterococcus faecium), greater than 128 µg/mL. Further, the lowest concentration to inhibit growth in test [12] (Enterococcus faecium) (MIC) was 0.5 µg/mL (≈ 0.345 µM).

As usually defined, the IC50 is the concentration that inhibits the measured activity by half. The low end stands for greater potency, the high end for weaker potency. In general, MIC refers to the lowest concentration found to suppress growth.

Values taken from US11807607B1, “Aminocarbazole compounds as antibacterial agents” (KING FAISAL UNIVERSITY, priority 2023, dated 2023).
